In ChEMBL document CHEMBL4373727, “Thienopyrimidinone Derivatives That Inhibit Bacterial tRNA (Guanine37-N1)-Methyltransferase (TrmD) by Restructuring the Active Site with a Tyrosine-Flipping Mechanism” (J Med Chem, 2019):

Assay: Selectivity ratio of Kd for full length Mycobacterium tuberculosis tRNA (guanine(37)-N1)-methyltransferase expressed in Escherichia coli BL21 (DE3) to Kd for Pseudomonas aeruginosa tRNA (guanine(37)-N1)-methyltransferase (Leu5 to Asp25 residues) expressed in Escherichia coli BL21 (DE3) Rosetta T1R cells

Row | SMILES | Ratio
1 | CCCCCCCCNCc1ccc(CNC(=O)c2csc3nc[nH]c(=O)c23)cc1 | 100
2 | NC1CCN(Cc2ccc(CNC(=O)c3csc4nc[nH]c(=O)c34)cc2)CC1 | 100 to 300
